In PMC7714403 (JCI Insight, 2020):

Key:
[1] = system: 40 kinases; details: 200 nM; 11 of 40 kinases; cited from earlier work
[2] = molecular target: T1, RSK3 domain1 (Homo sapiens, UniProt Q15349); experiment: KiNativ, OCI cells live cell; type: cell-based; details: 2 h, labeling site Lys2, peptide […]
T1 construct: RSK3 domain1

[3] = molecular target: T2, MAP2K4 (Homo sapiens, UniProt P45985); experiment: KiNativ, OCI cells live cell; type: cell-based; details: 2 h
T2 sequence (P45985 1-399): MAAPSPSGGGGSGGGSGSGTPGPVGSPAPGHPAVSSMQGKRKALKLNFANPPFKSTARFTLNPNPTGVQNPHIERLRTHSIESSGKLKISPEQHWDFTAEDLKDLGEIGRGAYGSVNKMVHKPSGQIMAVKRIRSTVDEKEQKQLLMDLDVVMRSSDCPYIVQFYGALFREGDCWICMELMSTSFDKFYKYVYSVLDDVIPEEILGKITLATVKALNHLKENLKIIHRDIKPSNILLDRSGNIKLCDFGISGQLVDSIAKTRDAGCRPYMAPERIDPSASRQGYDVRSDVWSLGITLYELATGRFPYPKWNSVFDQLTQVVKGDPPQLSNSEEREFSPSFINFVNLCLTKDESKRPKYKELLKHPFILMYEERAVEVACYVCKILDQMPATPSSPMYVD

[4] = molecular target: GSK3B (Homo sapiens, UniProt P49841); experiment: KiNativ, OCI cells live cell; type: cell-based; details: 2 h, labeling site Lys2, peptide […]
[5] = molecular target: LOK (Homo sapiens, UniProt O94804); experiment: KiNativ, OCI cells live cell; type: cell-based; details: labeling site Lys2, peptide DLKAGNVLMTLEGDIR
[6] = molecular target: T3, MASTL (Homo sapiens, UniProt Q96GX5); experiment: KiNativ, OCI cells live cell; type: cell-based
T3 sequence (Q96GX5 1-879): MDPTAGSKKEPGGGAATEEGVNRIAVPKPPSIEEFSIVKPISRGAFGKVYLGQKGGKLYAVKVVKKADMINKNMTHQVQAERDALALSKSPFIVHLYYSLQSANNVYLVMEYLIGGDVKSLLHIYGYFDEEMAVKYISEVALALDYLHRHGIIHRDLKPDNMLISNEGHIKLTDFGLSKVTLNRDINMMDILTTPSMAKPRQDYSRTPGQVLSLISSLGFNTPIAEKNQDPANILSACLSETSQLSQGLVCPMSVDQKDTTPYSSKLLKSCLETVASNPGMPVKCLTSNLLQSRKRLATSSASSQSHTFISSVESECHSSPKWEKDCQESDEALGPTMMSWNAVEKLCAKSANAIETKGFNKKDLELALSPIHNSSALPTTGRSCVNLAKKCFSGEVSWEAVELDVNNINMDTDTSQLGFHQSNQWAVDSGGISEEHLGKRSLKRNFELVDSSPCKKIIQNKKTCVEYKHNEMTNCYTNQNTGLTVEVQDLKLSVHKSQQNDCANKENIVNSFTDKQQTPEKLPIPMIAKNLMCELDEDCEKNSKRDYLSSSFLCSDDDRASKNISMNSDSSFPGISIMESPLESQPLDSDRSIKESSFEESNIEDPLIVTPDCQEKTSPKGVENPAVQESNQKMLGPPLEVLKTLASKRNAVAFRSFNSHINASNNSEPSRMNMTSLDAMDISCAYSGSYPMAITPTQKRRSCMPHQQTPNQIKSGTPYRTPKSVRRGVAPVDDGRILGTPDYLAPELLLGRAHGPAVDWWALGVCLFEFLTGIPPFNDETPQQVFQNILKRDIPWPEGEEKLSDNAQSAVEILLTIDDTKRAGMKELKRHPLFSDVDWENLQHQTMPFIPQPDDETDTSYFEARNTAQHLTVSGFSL

[7] = molecular target: CDK4 (Homo sapiens, UniProt P11802); experiment: KdELECT binding assay; parameters: purchased Eurofins DiscoverX
[8] = molecular target: T4, LATS1 (Homo sapiens, UniProt O95835); experiment: KiNativ, OCI cells live cell; type: cell-based; details: 2 h
T4 sequence (O95835 1-1130): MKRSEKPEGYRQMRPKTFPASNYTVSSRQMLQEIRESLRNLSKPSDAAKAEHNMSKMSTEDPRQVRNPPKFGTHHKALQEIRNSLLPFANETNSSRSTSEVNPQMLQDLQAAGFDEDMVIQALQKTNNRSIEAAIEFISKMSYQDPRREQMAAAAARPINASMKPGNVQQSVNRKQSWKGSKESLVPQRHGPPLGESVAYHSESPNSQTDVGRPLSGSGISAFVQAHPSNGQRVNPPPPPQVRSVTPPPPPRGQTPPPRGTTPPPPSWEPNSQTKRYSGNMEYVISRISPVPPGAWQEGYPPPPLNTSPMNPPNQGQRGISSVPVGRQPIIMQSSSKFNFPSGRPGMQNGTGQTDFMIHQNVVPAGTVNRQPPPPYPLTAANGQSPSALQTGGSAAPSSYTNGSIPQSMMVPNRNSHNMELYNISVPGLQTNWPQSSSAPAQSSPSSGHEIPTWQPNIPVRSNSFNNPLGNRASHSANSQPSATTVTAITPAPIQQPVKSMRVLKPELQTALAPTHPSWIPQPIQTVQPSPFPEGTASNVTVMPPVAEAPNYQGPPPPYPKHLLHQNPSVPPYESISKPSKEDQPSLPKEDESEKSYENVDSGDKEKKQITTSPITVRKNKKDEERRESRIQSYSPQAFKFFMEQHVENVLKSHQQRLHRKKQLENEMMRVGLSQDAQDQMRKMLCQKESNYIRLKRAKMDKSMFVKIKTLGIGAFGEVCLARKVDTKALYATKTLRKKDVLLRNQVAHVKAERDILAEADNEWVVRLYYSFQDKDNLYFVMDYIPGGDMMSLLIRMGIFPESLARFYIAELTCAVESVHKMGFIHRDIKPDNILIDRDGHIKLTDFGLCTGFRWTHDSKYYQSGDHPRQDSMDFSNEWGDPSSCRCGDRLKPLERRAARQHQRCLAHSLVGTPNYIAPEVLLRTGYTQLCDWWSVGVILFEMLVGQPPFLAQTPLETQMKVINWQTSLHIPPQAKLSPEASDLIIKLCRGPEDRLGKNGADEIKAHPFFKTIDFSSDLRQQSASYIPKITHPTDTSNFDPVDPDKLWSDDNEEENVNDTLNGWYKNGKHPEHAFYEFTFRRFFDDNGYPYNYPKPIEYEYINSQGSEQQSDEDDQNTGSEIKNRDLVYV

[9] = molecular target: TAO2 (Homo sapiens, UniProt Q9UL54); experiment: KiNativ, OCI cells live cell; type: cell-based; details: 2 h, labeling site Lys2, peptide […]
Sequence of TAO2 (Q9UL54 whole entry): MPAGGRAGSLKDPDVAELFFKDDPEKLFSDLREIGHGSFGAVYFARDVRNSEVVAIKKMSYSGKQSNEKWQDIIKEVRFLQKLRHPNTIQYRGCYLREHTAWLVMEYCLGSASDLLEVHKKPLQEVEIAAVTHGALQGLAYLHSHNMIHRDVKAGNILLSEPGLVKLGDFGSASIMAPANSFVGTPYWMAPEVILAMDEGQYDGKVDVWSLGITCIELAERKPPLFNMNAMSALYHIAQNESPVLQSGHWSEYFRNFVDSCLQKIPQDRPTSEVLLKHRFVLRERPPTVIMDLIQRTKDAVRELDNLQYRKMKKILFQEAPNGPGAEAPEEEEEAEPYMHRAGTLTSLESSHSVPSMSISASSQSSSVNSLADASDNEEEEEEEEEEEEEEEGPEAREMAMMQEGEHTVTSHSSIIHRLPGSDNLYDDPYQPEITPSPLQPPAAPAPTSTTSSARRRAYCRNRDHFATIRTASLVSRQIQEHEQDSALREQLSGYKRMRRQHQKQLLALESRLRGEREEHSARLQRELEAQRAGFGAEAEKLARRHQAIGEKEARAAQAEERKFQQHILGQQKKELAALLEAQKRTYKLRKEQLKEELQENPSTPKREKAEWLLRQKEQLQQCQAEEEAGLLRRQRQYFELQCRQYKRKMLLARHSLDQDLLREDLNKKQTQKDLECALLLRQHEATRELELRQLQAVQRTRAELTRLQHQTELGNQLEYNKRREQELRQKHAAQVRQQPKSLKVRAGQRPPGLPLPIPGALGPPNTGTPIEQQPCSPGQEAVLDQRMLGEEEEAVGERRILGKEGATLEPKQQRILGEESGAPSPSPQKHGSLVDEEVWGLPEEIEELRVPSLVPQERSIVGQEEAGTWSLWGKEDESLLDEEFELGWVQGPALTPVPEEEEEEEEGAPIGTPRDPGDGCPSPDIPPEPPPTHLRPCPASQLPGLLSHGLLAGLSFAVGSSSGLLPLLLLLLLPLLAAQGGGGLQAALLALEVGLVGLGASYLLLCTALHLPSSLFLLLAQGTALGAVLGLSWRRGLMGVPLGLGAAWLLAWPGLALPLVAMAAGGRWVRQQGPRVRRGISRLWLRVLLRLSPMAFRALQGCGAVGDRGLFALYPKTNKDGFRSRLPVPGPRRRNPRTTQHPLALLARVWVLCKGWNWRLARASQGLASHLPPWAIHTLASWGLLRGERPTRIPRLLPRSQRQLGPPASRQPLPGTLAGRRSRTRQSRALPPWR

Sequence of CDK4 (P11802 whole entry): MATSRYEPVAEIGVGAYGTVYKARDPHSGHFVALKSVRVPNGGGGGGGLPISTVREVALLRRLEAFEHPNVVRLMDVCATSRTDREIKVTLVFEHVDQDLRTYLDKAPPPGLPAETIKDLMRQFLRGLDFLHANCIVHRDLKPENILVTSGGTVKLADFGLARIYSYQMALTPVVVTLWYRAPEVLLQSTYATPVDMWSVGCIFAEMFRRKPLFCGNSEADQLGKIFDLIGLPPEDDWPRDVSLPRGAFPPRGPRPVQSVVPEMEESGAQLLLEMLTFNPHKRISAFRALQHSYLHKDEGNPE
Sequence of GSK3B (P49841 whole entry): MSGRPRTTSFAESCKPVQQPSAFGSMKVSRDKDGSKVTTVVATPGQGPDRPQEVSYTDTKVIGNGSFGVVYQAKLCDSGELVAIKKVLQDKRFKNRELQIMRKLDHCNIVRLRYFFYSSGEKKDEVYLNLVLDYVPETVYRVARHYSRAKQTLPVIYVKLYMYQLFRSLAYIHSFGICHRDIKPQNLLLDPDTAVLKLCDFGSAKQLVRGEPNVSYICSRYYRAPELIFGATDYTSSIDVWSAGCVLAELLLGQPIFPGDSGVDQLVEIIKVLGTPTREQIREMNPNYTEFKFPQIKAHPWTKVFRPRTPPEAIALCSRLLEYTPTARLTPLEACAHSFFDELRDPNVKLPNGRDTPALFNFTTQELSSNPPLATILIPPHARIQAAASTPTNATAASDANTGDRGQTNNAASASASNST
Sequence of LOK (O94804 whole entry): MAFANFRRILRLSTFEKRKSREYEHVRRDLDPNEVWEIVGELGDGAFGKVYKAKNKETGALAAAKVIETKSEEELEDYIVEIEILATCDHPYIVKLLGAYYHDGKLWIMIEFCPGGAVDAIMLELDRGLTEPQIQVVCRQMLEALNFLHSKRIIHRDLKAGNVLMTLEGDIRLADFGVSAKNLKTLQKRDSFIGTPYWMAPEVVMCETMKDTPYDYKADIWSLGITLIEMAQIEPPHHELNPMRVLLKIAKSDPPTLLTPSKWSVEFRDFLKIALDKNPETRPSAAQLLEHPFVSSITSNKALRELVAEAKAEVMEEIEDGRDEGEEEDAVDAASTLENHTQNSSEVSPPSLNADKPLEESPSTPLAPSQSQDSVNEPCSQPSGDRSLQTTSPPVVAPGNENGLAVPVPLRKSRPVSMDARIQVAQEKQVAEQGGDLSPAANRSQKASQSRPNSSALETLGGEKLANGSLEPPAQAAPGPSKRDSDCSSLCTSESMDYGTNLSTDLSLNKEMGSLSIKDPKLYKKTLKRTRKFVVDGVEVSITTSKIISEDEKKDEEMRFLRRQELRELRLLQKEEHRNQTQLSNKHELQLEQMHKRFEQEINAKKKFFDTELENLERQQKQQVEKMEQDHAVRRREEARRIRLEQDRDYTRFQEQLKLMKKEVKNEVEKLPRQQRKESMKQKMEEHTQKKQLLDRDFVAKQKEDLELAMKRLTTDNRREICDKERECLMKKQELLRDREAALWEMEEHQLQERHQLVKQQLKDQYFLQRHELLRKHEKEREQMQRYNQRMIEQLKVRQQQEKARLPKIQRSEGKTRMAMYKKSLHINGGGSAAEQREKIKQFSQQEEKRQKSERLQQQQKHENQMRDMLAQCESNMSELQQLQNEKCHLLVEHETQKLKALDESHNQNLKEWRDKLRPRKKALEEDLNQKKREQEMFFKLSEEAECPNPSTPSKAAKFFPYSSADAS
T1 sequence (Q15349 whole entry, the tested form may be a part): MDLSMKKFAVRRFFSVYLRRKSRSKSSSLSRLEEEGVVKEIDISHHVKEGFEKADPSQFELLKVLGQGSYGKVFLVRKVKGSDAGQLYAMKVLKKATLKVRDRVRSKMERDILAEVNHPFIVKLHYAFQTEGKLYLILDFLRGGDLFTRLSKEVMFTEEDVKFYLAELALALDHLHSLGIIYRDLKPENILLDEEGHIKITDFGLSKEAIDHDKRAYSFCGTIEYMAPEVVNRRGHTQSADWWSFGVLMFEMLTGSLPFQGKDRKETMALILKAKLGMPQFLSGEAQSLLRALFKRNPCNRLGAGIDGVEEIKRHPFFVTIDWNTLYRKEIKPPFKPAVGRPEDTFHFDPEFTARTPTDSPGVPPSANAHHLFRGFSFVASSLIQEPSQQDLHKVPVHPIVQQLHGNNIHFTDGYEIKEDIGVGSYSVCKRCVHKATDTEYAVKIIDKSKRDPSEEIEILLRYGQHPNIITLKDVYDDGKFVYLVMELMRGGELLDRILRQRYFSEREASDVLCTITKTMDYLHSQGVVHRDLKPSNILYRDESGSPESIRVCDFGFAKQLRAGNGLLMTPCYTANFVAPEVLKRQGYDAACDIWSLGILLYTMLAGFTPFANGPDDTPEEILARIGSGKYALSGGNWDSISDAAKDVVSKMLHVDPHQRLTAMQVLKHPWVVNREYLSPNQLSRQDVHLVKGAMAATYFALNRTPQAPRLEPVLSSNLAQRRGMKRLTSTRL

CN1CCN(Cc2ccc(Nc3ncc(Cl)c(Nc4ccccc4S(=O)(=O)N(C)C)n3)cc2)CC1 [TP-0903]
Inhibition of kinases [1]: > 50%
inhibition at 0.1 µM [2]: 53.5%
inhibition at 0.1 µM ([3]; labeling site Activation Loop, peptide LCDFGISGQLVDSIAKTR): -0.165%
inhibition at 0.1 µM ([3]; labeling site Lys1, peptide MVHKPSGQIMAVKR): 5.4%
inhibition at 0.1 µM ([3]; labeling site Lys2, peptide DIKPSNILLDR): 3.5%
inhibition at 0.1 µM [4]: 32.3%
Inhibition [5]: 86.9%
Inhibition ([6]; labeling site ATP Loop, peptide GAFGKVYLGQK): 6.7%
Inhibition ([6]; labeling site Lys1, peptide LYAVKVVK): 34.3%
Kd [7]: < 5 nM
inhibition at 0.1 µM ([8]; labeling site Lys1, peptide ALYATKTLR): 11.6%
inhibition at 0.1 µM ([8]; labeling site Lys2, peptide DIKPDNILIDR): 7.9%
inhibition at 0.1 µM [9]: 73.7%
